The values below come from patent publication US9771359B1, “Substituted oxazole- and thiazole-based carboxamide and urea derivatives as vanilloid receptor ligands II” (MEDIFRON DBT INC., priority 2014, dated 2017).

The assay deals with vanilloid receptor 1 (VR1/TRPV1) (Homo sapiens (Human), UniProt Q8NER1). Briefly: FLIPR assay, Ca2+ influx in CHO K1 cells transfected with the human VR1 gene. The assay is classed as cell-based. As to conditions: for Ki: displacement of capsaicin 100 nM, Ki from IC50 by Cheng-Prusoff equation, read-out: (f) Ki (human) [nM] Cap; for inhibition at 5 µM: CHO-K1, @5 μM test compound, capsaicin 100 nM, read-out: inhibition (as a percentage), Cap; for compound-alone effect on Ca2+ influx (agonist / partial agonist): compound 5 μM, % activation compared with control capsaicin 10 μM. Here is the method:
Furthermore, preference may be given to compounds according to the first aspect of the invention that cause a 50% displacement of capsaicin, which is present at a concentration of 100 nM, in a FLIPR assay with CHO K1 cells which were transfected with the human VR1 gene at a concentration of less than 2 000 nM, preferably less than 1 000 nM, particularly preferably less than 300 nM, most particularly preferably less than 100 nM, even more preferably less than 75 nM, additionally preferably less than 50 nM, most preferably less than 10 nM. In the process, the Ca^2+ influx is quantified in the FLIPR assay with the aid of a Ca^2+-sensitive dye (type Fluo-4, Molecular Probes Europe BV, Leiden, the Netherlands) in a fluorescent imaging plate reader (FLIPR, Molecular Devices, Sunnyvale, USA), as described hereinafter.
The FLIPR protocol consists of 2 substance additions during a kinetic measurement. First the compounds to be tested (5 μM) are pipetted onto the cells and the Ca^2+ influx is determined in comparison to the control (capsaicin 10 μM), providing the result as % activation and representing the compound-alone effect (calculation at peak signal related to baseline). […] After 5 min incubation, the Ca^2+ influx is related to an injection of 100 nM of capsaicin and thereby the antagonistic effect of the test compounds detected.
Desensitising agonists and antagonists lead to suppression of the Ca^2+ influx. The % inhibition is calculated compared to the maximum achievable inhibition with 10 μM of capsaicin. Triple analyses (n=3) are carried out and repeated in at least 3 independent experiments.
Starting from the percentage displacement caused by different concentrations of the compounds to be tested of general formula I, IC50 inhibitory concentrations which cause a 50-% displacement of capsaicin were calculated. Ki values for the test substances were obtained by conversion by means of the Cheng-Prusoff equation (Cheng, Prusoff; Biochem. Pharmacol. 22, 3099-3108, 1973).
Chinese hamster ovary cells (CHO K1 cells, European Collection of Cell Cultures (ECACC) United Kingdom) are stably transfected with the VR1 gene. For functional testing, these cells are plated out on poly-D-lysine-coated black 96-well plates having a clear base (BD Biosciences, Heidelberg, Germany) at a density of 25,000 cells/well. The cells are incubated overnight at 37° C. and 5% CO2 in a culture medium (Ham's F12 nutrient mixture, 10% by volume of FCS (foetal calf serum), 18 μg/ml of L-proline). The next day the cells are incubated with Fluo-4 (Fluo-4 2 μM, 0.01% by volume of Pluronic F127, Molecular Probes in HBSS (Hank's buffered saline solution), Gibco Invitrogen GmbH, Karlsruhe, Germany) for 30 min at 37° C. Subsequently, the plates are washed three times with HBSS buffer and after further incubation for 15 min at RT used for Ca^2+ measurement in a FLIPR assay. The Ca^2+-dependent fluorescence is measured before and after the addition of the substances to be tested (λex wavelength=488 nm, λem=540 nm). Quantification is carried out by measuring the highest fluorescence intensity (FC, fluorescence counts) over time.

Where a name gives a salt, the structure may show the parent alone.

The term Ki denotes a measure of affinity in units of concentration, obtained from inhibition or displacement. In general, inhibition refers to the drop in the measured response relative to a control, in per cent.

Sequence of vanilloid receptor 1 (VR1/TRPV1) (Q8NER1 whole entry): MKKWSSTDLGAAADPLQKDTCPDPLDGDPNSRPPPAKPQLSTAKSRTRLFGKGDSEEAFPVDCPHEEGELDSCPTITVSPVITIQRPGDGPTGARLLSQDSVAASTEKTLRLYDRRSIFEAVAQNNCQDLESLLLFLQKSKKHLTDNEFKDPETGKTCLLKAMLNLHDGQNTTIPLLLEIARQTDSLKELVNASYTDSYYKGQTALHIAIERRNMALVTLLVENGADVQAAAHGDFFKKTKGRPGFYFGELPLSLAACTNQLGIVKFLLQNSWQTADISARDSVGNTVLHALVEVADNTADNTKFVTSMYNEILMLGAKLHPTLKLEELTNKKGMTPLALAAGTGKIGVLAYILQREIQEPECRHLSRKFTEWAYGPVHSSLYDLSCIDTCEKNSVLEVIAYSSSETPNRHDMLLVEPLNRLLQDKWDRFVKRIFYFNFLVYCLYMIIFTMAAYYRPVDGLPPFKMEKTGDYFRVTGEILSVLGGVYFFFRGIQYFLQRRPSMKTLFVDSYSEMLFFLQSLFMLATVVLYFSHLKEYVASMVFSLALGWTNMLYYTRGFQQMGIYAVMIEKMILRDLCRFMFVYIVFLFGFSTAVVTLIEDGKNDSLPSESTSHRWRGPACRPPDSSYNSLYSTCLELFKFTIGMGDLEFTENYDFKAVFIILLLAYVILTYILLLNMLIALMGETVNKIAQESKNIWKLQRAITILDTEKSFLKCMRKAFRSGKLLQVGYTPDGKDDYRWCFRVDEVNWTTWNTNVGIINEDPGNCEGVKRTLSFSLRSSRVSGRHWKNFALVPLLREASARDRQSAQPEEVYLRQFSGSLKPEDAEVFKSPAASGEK

As for `CC(C)(C)c1nc(-c2cccc(Cl)c2)c(CNC(=O)Nc2ccc(OCCO)nc2)o1` [EX-40, 1-((2-(tert-butyl)-4-(3-chlorophenyl)oxazol-5-yl)methyl)-3-(6-(2-hydroxyethoxy)pyridin-3-yl)urea], the Ki amounted to 43.6 nM.
On the same count and under the same terms, to `CC(C)(C)c1nc(-c2cccc(Cl)c2)c(CNC(=O)Nc2cccc3cnccc23)s1` [EX-56, 1-((2-(tert-butyl)-4-(3-chlorophenyl)thiazol-5-yl)methyl)-3-(isoquinolin-5-yl)urea] belongs 0.1 nM.
As for `CC(C)(C)c1nc(-c2cccc(Cl)c2)c(CNC(=O)Nc2ccc(CCO)nc2)o1` [EX-35, 1-((2-(tert-butyl)-4-(3-chlorophenyl)oxazol-5-yl)methyl)-3-(6-(2-hydroxyethyl)pyridin-3-yl)urea], the Ki turned out to be 78.4 nM.
For `CC(C(=O)NCc1sc(C(F)(F)F)nc1-c1cccc(Cl)c1)c1cnc(CO)c(F)c1` (stereo not drawn) [EX-20, N-((4-(3-chlorophenyl)-2-(trifluoromethyl)thiazol-5-yl)methyl)-2-(5-fluoro-6-(hydroxymethyl)pyridin-3-yl)propanamide], the Ki worked out at 0.3 nM.
Regarding `CC(C(=O)NCc1oc(C(F)(F)F)nc1-c1cccc(Cl)c1)c1ccc(NCCO)nc1` (single isomer, unassigned) [EX-18, N-((4-(3-chlorophenyl)-2-(trifluoromethyl)oxazol-5-yl)methyl)-2-(6-((2-hydroxyethyl)amino)pyridin-3-yl)propanamide], the Ki worked out at 96.7 nM.
On to `CS(=O)(=O)CCc1ccc(NC(=O)NCc2oc(C(F)(F)F)nc2-c2cccc(Cl)c2)cn1` [EX-30, 1-((4-(3-chlorophenyl)-2-(trifluoromethyl)oxazol-5-yl)methyl)-3-(6-(2-(methylsulfonyl)ethyl)pyridin-3-yl)urea], for which the inhibition at 5 µM was 41%.
On to `CC(C(=O)NCc1oc(C(F)(F)F)nc1-c1cccc(Cl)c1)c1cnc(CO)c(F)c1` (stereo not drawn) [EX-22, N-((4-(3-chlorophenyl)-2-(trifluoromethyl)oxazol-5-yl)methyl)-2-(5-fluoro-6-(hydroxymethyl)pyridin-3-yl)propanamide], for which, where the note is “inhibition <10% @5 μM”, the “(f) Ki (human) Cap: no effect” value is listed as “ne (ne=no effect (<10% @5 μM))”.
As to `CC(C)(C)c1nc(-c2cccc(Cl)c2)c(CNC(=O)Nc2cccc3ncccc23)s1` [EX-53, 1-((2-(tert-butyl)-4-(3-chlorophenyl)thiazol-5-yl)methyl)-3-(quinolin-5-yl)urea], the “compound-alone effect on Ca2+ influx (agonist / partial agonist)” value is recorded as “AG (a Ca^2+ influx of >60% relates to a pure agonist (AG))”.
With `CC(C)(C)c1nc(CNC(=O)Nc2ccc(CNS(N)(=O)=O)cc2)c(-c2cccc(Cl)c2)o1` [EX-44, N-((5-(3-chlorophenyl)-2-(tertbutyl)oxazol-4-yl)methyl)-N′-(4-((sulfamoylamino)methyl)phenyl)urea], the Ki is 29.9 nM.
For `CS(=O)(=O)CCc1ccc(NC(=O)NCc2sc(C(F)(F)F)nc2-c2cccc(Cl)c2)cn1` [EX-31, 1-((4-(3-chlorophenyl)-2-(trifluoromethyl)thiazol-5-yl)methyl)-3-(6-(2-(methylsulfonyl)ethyl)pyridin-3-yl)urea], the Ki came out at 48.8 nM.
In the case of `CC(C(=O)NCc1sc(C(F)(F)F)nc1-c1cccc(Cl)c1)c1ccc(CNS(N)(=O)=O)c(F)c1` (stereo not drawn) [EX-24, N-((4-(3-chlorophenyl)-2-(trifluoromethyl)thiazol-5-yl)methyl)-2-(3-fluoro-4-((sulfamoylamino)methyl)phenyl)propanamide], the Ki was 2.35 nM.
Regarding `CC(C)(C)c1nc(-c2cccc(Cl)c2)c(CNC(=O)Nc2ccc3c(c2)OCCO3)s1` [EX-54, 1-((2-(tert-butyl)-4-(3-chlorophenyl)thiazol-5-yl)methyl)-3-(2,3-dihydrobenzo[b][1,4]dioxin-6-yl)urea], the Ki stood at 5.9 nM.
As for `CC(C)(C)c1nc(-c2cccc(Cl)c2)c(CNC(=O)Nc2ccc(COCCO)nc2)s1` [EX-47, 1-((2-(tert-butyl)-4-(3-chlorophenyl)thiazol-5-yl)methyl)-3-(6-((2-hydroxyethoxy)-methyl)pyridin-3-yl)urea dihydrochloride], the Ki amounted to 33.3 nM.
As for `CC(C)(C)c1nc(-c2cccc(Cl)c2)c(CNC(=O)Nc2cccc3c2CCC3)s1` [EX-51, 1-((2-(tert-butyl)-4-(3-chlorophenyl)thiazol-5-yl)methyl)-3-(2,3-dihydro-1H-inden-4-yl)urea], the “compound-alone effect on Ca2+ influx (agonist / partial agonist)” value is “pAG (A Ca^2+ influx of 10%-60% reveals a partial agonist (pAG))” and the Ki is 2.9 nM.
With `CC(C)(C)c1nc(-c2cccc(Cl)c2)c(CNC(=O)Nc2ccc(COCCO)nc2)o1` [EX-46, 1-((2-(tert-butyl)-4-(3-chlorophenyl)oxazol-5-yl)methyl)-3-(6-((2-hydroxyethoxy)methyl)pyridin-3-yl)urea dihydrochloride], the inhibition at 5 µM is 55%.
In the case of `CC(C(=O)NCc1oc(C(F)(F)F)nc1-c1cccc(Cl)c1)c1ccc(CNS(N)(=O)=O)cc1` (stereo not drawn) [EX-05, N-((4-(3-chlorophenyl)-2-(trifluoromethyl)oxazol-5-yl)methyl)-2-(4-((sulfamoylamino)methyl)-phenyl)propanamide], the Ki is 7.5 nM.
In the case of `Cc1cccc(-c2nc(C(C)(C)C)sc2CNC(=O)C(C)c2ccc(CO)c(F)c2)c1` (stereo not drawn) [EX-08, N-((2-(tert-butyl)-4-(m-tolyl)thiazol-5-yl)methyl)-2-(3-fluoro-4-(hydroxymethyl)phenyl)propanamide], the “compound-alone effect on Ca2+ influx (agonist / partial agonist)” value is recorded as “AG (a Ca^2+ influx of >60% relates to a pure agonist (AG))”.
Regarding `CC(C(=O)NCc1sc(C(C)(C)C)nc1-c1cccc(Cl)c1)c1ccc(CNS(C)(=O)=O)c(F)c1` (stereo not drawn) [EX-03, N-((2-(tert-butyl)-4-(3-chlorophenyl)thiazol-5-yl)methyl)-2-(3-fluoro-4-(methylsulfonamido-methyl)phenyl)propanamide], the Ki was found to be 0.6 nM.
Turning to `CC(C(=O)NCc1oc(C(F)(F)F)nc1-c1cccc(Cl)c1)c1cnc(CCS(C)(=O)=O)c(F)c1` (stereo not drawn) [EX-11, N-((4-(3-chlorophenyl)-2-(trifluoromethyl)oxazol-5-yl)methyl)-2-(5-fluoro-6-(2-(methylsulfonyl)ethyl)pyridin-3-yl)propanamide], the Ki came to 53.1 nM.
For the molecule `CC(C)(C)c1nc(-c2cccc(Cl)c2)c(CNC(=O)Nc2ccc(CNS(C)(=O)=O)cc2)o1` [EX-38, N-(4-(3-((2-(tert-butyl)-4-(3-chlorophenyl)oxazol-5-yl)methyl)ureido)benzyl)methanesulfonamide], the Ki stood at 52.6 nM.
For `O=C(NCc1oc(C(F)(F)F)nc1-c1cccc(Cl)c1)Nc1ccc(CCO)nc1` [EX-37, 1-((4-(3-chlorophenyl)-2-(trifluoromethyl)oxazol-5-yl)methyl)-3-(6-(2-hydroxyethyl)pyridin-3-yl)urea], the inhibition at 5 µM turned out to be 46%.
Regarding `Cc1cccc(-c2nc(C(C)(C)C)sc2CNC(=O)C(C)c2ccc(CNS(C)(=O)=O)c(F)c2)c1` (stereo not drawn) [EX-04, N-((2-(tert-butyl)-4-(m-tolyl)thiazol-5-yl)methyl)-2-(3-fluoro-4-(methylsulfonamidomethyl)phenyl)propanamide], the “compound-alone effect on Ca2+ influx (agonist / partial agonist)” value is listed as “pAG (A Ca^2+ influx of 10%-60% reveals a partial agonist (pAG))” and the Ki amounted to 1 nM.
For `O=C(NCc1sc(C(F)(F)F)nc1-c1cccc(Cl)c1)Nc1ccc(COCCO)nc1` [EX-49, 1-((4-(3-chlorophenyl)-2-(trifluoromethyl)thiazol-5-yl)methyl)-3-(6-((2-hydroxyethoxy)methyl)pyridin-3-yl)urea dihydrochloride], the Ki was 35 nM.
Same read-out and setting: to `O=C(NCc1sc(C(F)(F)F)nc1-c1cccc(Cl)c1)Nc1ccc(OCCO)nc1` [EX-43, 1-((4-(3-chlorophenyl)-2-(trifluoromethyl)thiazol-5-yl)methyl)-3-(6-(2-hydroxyethoxy)pyridin-3-yl)urea] belongs 29.8 nM; to `CC(C)(C)c1nc(-c2cccc(Cl)c2)c(CNC(=O)Nc2ccc(OCCO)nc2)s1` [EX-41, 1-((2-(tert-butyl)-4-(3-chlorophenyl)thiazol-5-yl)methyl)-3-(6-(2-hydroxyethoxy)pyridin-3-yl)urea], 27.5 nM.
